How the values were obtained:
mice = assay: Acute toxicity determination (LD50), intravenous administration in a caudal vein; assay type: in vivo; details: mice 18-22 g, 2 ml/min, 7 days observation, death as criterion
Method: 1. Acute Toxicity Determination (LD50)
In an individual cage (Rhema/Hofheim company) the contrast medium was administered to mice (weight: 18-22 g) approximately at body temperature in a caudal vein at a rate of 2 ml/min. […]
The contrast media were administered to 3 mice each in 3 doses at variable volumes and constant concentration. The allocation of the animals to the individual doses and the injection sequence of the doses took place by chance.
The observation period of the animals extended over 7 days per injection. The death of the animals was used as the criterion of the effectiveness.
(§1) The statistical evaluation of all study results took place with the probit analysis.

rats = assay: Intracisternal administration (ED50), neural compatibility; assay type: in vivo, rats (Wistar-Han-Schering, SPF); details: once intracisternally, 0.08 ml/animal, posture anomalies, spasms and death as criteria
Method: 2. Intracisternal Administration (ED50)
The test substance was administered under light ether anesthesia to an equal number of female and male rats (130-170 g, Wistar-Han-Schering, SPF) once intracisternally by suboccipital puncture in constant volumes (0.08 ml/animal) in different concentrations (3 doses per 10 animals per substance). A volume sampling check (Ringer's solution) followed the study. Posture anomalies, spasms and death of the animals were evaluated as action criteria.
as §1

[1] = system: cerebral infarction in the rat; assay: NMR-diagnostic in vivo examination: demonstration of a cerebral infarction in the rat; parameters: species or system Wistar rat; details: image 1 minute after administration
Method: The experimental animal was a female Wistar rat weighing 200 g. For the induction of the cerebral infarction, the animal was first anesthetized. After intravenous injection of Bengal red with a dose of 20 mg/kg, an area of the brain about 0.7 cm in diameter near the bregma point was irradiated through the cranium with light of wavelength 548 nm (this corresponds to the maximum absorption of Bengal red), by which, because of the formation of singlet oxygen by a chain of various reactions, there results the aggregation of platelets and thus an infarction in the irradiated region.
The imaging took place in an MRI experimental device of the General Electric company (field strength, 2 teslas). It was performed with a spin echo sequence (TR=400 msec, Ts=20 msec). The layer thickness was 3 mm, and 4 averagings were performed respectively.
An axial sectional plane image without contrast medium where the cranium points downward was taken. The infraction area is indicated only quite weakly by a lower signal intensity in comparison to the healthy tissue. […] The same animal was administered another dose after about 20 minutes, this time in the amount of 0.3 mmol of Gd/kg.

[2] = reference value for monomer contrast media; cited from earlier work

Structure (SMILES) | Acute i.v. LD50 (mice) [mmol/kg] | Neural ED50 (rats) [µmol/kg] | signal enhancement in the area of infarction (MRI) ([1]; 0.1 mmol of Gd/kg, 2 teslas, spin echo) | signal enhancement in the area of infarction (MRI) ([1]; further dose of 0.3 mmol of Gd/kg after about 20 minutes) | intravenous compatibility [2] [mmol/kg]
O=C([O-])CN1CCN(CC(=O)[O-])CCN(CC(O)C(O)CO)CCN(CC(=O)[O-])CC1.[Gd+3] (stereo not shown) [Example 1, Gadolinium Complex of 10-(2,3,4-trihydroxybutyl)-1,4,7-triscarboxymethyl-1,4,7,10-tetraazacyclododecane] | 35 | 27 | – | – | –
O=C([O-])CN1CCN(CC(=O)[O-])CCN(C(CO)C(O)CO)CCN(CC(=O)[O-])CC1.[Gd+3] (stereo not shown) [Example 2, Gadolinium Complex of 10-(1-hydroxymethyl-2,3-dihydroxypropyl)-1,4,7-triscarboxymethyl-1,4,7,10-tetraazacyclododecane] | 30 | 29 | clear enhancement | enhancement substantially stronger than after the smaller dose | –
OC[C@@H](O)[C@@H](O)[C@H](O)[C@H](O)CO [mannitol] | – | – | – | – | 30 to 40
